Reference: the supplement of paper PMC7224384

Key:
MDA-MB-453 [1] = test: drug sensitivity score (DSS), single agent (DSS (weighted AUC score)); higher = more sensitive (stronger viability decrease); extreme values may be limits of the assay; conditions: BLU9931 0 nM; 72 h
Procedure, shortened: (§1)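 Each 384-well plate held compounds from the FIMM Oncology set, predispensed in singlicate at five 10-fold dilutions spanning a 10,000-fold range, and each well then received 2000 MDA-MB-453 cells in medium with or without an FGFR4 inhibitor at 100 nM final. Plates stayed at 37 °C, 5% CO2 for 72 h, after which cellular ATP was measured with CellTiterGlo 2.0. Readings were converted per plate into percent viability against control wells, and the drug sensitivity score was taken as a weighted area under a four-parameter logistic fit.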

MDA-MB-453 [2] = test: drug sensitivity score (DSS), in combination with BLU9931 (DSS (weighted AUC score)); higher = more sensitive (stronger viability decrease); extreme values may be limits of the assay; conditions: BLU9931 100 nM; 72 h
Procedure, shortened: as §1

Cc1cc(Nc2ncc(Cl)c(Nc3ccccc3S(=O)(=O)C(C)C)n2)c(OC(C)C)cc1C1CCNCC1 [Ceritinib]
drug sensitivity score (MDA-MB-453 [1]): 1.8
drug sensitivity score (MDA-MB-453 [2]): 1.9

COc1cc([C@@H]2c3cc4c(cc3[C@@H](O[C@@H]3O[C@@H]5CO[C@@H](C)O[C@H]5[C@H](O)[C@H]3O)[C@H]3COC(=O)[C@H]23)OCO4)cc(OC)c1O [Etoposide]
drug sensitivity score (MDA-MB-453 [1]): 2.8
drug sensitivity score (MDA-MB-453 [2]): 2.9

Nc1cc(C(F)(F)F)c(-c2cc(N3CCOCC3)nc(N3CCOCC3)n2)cn1 [Buparlisib]
drug sensitivity score (MDA-MB-453 [1]): 11.3
drug sensitivity score (MDA-MB-453 [2]): 11.9

O=C(NC1CCNCC1)c1n[nH]cc1NC(=O)c1c(Cl)cccc1Cl [AT7519]
drug sensitivity score (MDA-MB-453 [1]): 13.2
drug sensitivity score (MDA-MB-453 [2]): 14.6

C[C@@H](Nc1cc(F)cc(F)c1)c1cc(C(=O)N(C)C)cc2c(=O)cc(N3CCOCC3)oc12 [AZD-8186]
drug sensitivity score (MDA-MB-453 [1]): 1.7
drug sensitivity score (MDA-MB-453 [2]): 2.3

O=C(c1cc(Cc2n[nH]c(=O)c3ccccc23)ccc1F)N1CCN(C(=O)C2CC2)CC1 [Olaparib]
drug sensitivity score (MDA-MB-453 [1]): 1.7
drug sensitivity score (MDA-MB-453 [2]): 0.5

CC1(C)C(C(=O)Nc2ccc(S(=O)(=O)c3ccc(NC(=O)C4C(C)(C)C4(C)C)cc3)cc2)C1(C)C [BRD7116]
drug sensitivity score (MDA-MB-453 [1]): 4.5
drug sensitivity score (MDA-MB-453 [2]): 3.9

N#Cc1ccc(C(c2ccc(C#N)cc2)n2cncn2)cc1 [Letrozole]
drug sensitivity score (MDA-MB-453 [1]): 0
drug sensitivity score (MDA-MB-453 [2]): 0

C=CCc1cccc(/C=N/NC(=O)CN2CCN(Cc3ccccc3)CC2)c1O [PAC-1]
drug sensitivity score (MDA-MB-453 [1]): 4.4
drug sensitivity score (MDA-MB-453 [2]): 4.9

O=c1[nH]c(=O)n([C@H]2C[C@H](O)[C@@H](CO)O2)cc1C(F)(F)F [Trifluridine]
drug sensitivity score (MDA-MB-453 [1]): 2.6
drug sensitivity score (MDA-MB-453 [2]): 1.2

CN(C)C[C@@H]1CCn2cc(c3ccccc32)C2=C(C(=O)NC2=O)c2cn(c3ccccc23)CCO1 [Ruboxistaurin]
drug sensitivity score (MDA-MB-453 [1]): 5.3
drug sensitivity score (MDA-MB-453 [2]): 6.7

FC(F)c1nc2ccccc2n1-c1nc(N2CCOCC2)nc(N2CCOCC2)n1 [ZSTK474]
drug sensitivity score (MDA-MB-453 [1]): 14.9
drug sensitivity score (MDA-MB-453 [2]): 15.6

CCS(=O)(=O)N1CCN(c2ccc(Nc3ncc(C(N)=O)c(NC4CC4)n3)cc2)CC1 [Cerdulatinib]
drug sensitivity score (MDA-MB-453 [1]): 4.4
drug sensitivity score (MDA-MB-453 [2]): 0.3

C/C(=C\c1csc(C)n1)[C@@H]1C[C@@H]2O[C@]2(C)CCC[C@H](C)[C@H](O)[C@@H](C)C(=O)C(C)(C)[C@@H](O)CC(=O)N1 [Ixabepilone]
drug sensitivity score (MDA-MB-453 [1]): 5.6
drug sensitivity score (MDA-MB-453 [2]): 4.1

Cc1ccc(C(=O)Nc2cccc(C(F)(F)F)c2)cc1Nc1nc(-c2cccnc2)nc2c1cnn2C [NVP-BHG712]
drug sensitivity score (MDA-MB-453 [1]): 1.9
drug sensitivity score (MDA-MB-453 [2]): 1.2

CC(C)c1cc(C(=O)N2Cc3ccc(CN4CCN(C)CC4)cc3C2)c(O)cc1O [Onalespib]
drug sensitivity score (MDA-MB-453 [1]): 17
drug sensitivity score (MDA-MB-453 [2]): 16.4

Cc1cccc(CC(=O)N2CCc3c2ccc(-c2cn(C)c4ncnc(N)c24)c3F)n1
drug sensitivity score (MDA-MB-453 [1]): 2.2
drug sensitivity score (MDA-MB-453 [2]): 0

CNC(=O)c1ccc(-c2cnc3ncc(Cc4ccc5ncccc5c4)n3n2)cc1F [Capmatinib]
drug sensitivity score (MDA-MB-453 [1]): 0
drug sensitivity score (MDA-MB-453 [2]): 0

COc1cc(OC)c(/C=C/S(=O)(=O)Cc2ccc(OC)c(NCC(=O)O)c2)c(OC)c1 [Rigosertib]
drug sensitivity score (MDA-MB-453 [1]): 17.6
drug sensitivity score (MDA-MB-453 [2]): 16.2

CCC1=C[C@@H]2CN(C1)Cc1c([nH]c3ccccc13)[C@@](C(=O)OC)(c1cc3c(cc1OC)N(C)[C@H]1[C@@](O)(C(=O)OC)[C@H](OC(C)=O)[C@]4(CC)C=CCN5CC[C@]31[C@@H]54)C2 [Vinorelbine]
drug sensitivity score (MDA-MB-453 [1]): 23.2
drug sensitivity score (MDA-MB-453 [2]): 19

COc1ccc(COc2cc3oc(=O)c4cc(C(C)O)ccc4c3cc2OC)cc1 (stereo unspecified) [Palomid-529]
drug sensitivity score (MDA-MB-453 [1]): 2
drug sensitivity score (MDA-MB-453 [2]): 0

CNc1nc(Nc2cn(C(C)(C)C#N)nc2C)ncc1C(F)(F)F [GNE-0877]
drug sensitivity score (MDA-MB-453 [1]): 0
drug sensitivity score (MDA-MB-453 [2]): 0

O=C(O)c1ccc2c(c1)nc(Nc1cccc(Cl)c1)c1ccncc12 [Silmitasertib]
drug sensitivity score (MDA-MB-453 [1]): 8.1
drug sensitivity score (MDA-MB-453 [2]): 7.6
